From US20230303540A1 (Merck Sharp & Dohme LLC, priority 2020, published 2023)

These molecules were tested against GST-tagged truncated human mutant G2019S LRRK2 (Homo sapiens, UniProt Q5S007, G2019S) (assay: LRRK2 G2019S Km ATP LanthaScreen assay). Conditions: 134 μM ATP (Km ATP), LRRKtide substrate, mean IC50 values; read-out: LRRK2 pIC50 (converted).
Format: biochemical
Procedure, shortened: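 Compound preincubated 15 min at room temperature with enzyme in pH 8.5 Tris buffer (10 mM MgCl2). Then a 90 min reaction at ambient temperature with 134 μM (Km) ATP and fluorescein-LRRKtide. EDTA stop, Tb anti-phospho antibody TR-FRET; […]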

Row | SMILES | IC50
1 | Cc1cc2cnc(Nc3cnn(C45CC(C4)C5)c3Cl)nc2cc1N1CCN(C2(C)COCC2O)CC1 (single isomer, unassigned) [Ex-13.4, (3S,4S) or (3R, 4R)-4-(4-(2-((1-(bicyclo[1.1.1]pentan-1-yl)-5-chloro-1H-pyrazol-4-yl)amino)-6-methylquinazolin-7-yl)piperazin-1-yl)-4-methyltetrahydrofuran-3-ol] | 0.267 nM
2 | CC1(N2CCN(c3cc4cc(Nc5cnn(C6CC6(F)F)c5Cl)ncc4cc3Cl)CC2)COCC1O (single isomer, unassigned) [Ex-6.52, (3S,4S) or (3R,4R) 4-(4-(7-chloro-3-((5-chloro-1-(2,2-difluorocyclopropyl)-1H-pyrazol-4-yl)amino)isoquinolin-6-yl)piperazin-1-yl)-4-methyltetrahydrofuran-3-ol] | 3.12 nM
3 | Cc1c(Nc2ncc3ccc(N4[C@H](C)CC[C@H]4C)cc3n2)cnn1CCF [Ex-1.12, (2R,5S or 2,5R)-7-[2,5-dimethylpyrrolidin-1-yl]-N-[1-(2-fluoroethyl)-5-methyl-1H-pyrazol-4-yl]quinazolin-2-amine] | 20.2 nM
4 | CCn1ncc(Nc2ncc3ccc(N4C(=O)[C@H]5CC[C@@H]4C5)nc3n2)c1C (single isomer, unassigned) [Ex-15.4, (1S,4R) or (1R,4S)-2-{2-[(1-ethyl-5-methyl-1H-pyrazol-4-yl)amino]pyrido[2,3-d]pyrimidin-7-yl}-2-azabicyclo[2.2.1]heptan-3-one] | 12.5 nM
5 | C[C@H]1COC(=O)N1c1ccc2cnc(Nc3cnn(C4CCN(C5COC5)CC4F)c3Cl)nc2c1 (stereo in doubt) [Ex-7.3, (4S)-3-[2-({5-chloro-1-[(3S,4S)-3-fluoro-1-(oxetan-3-yl)piperidin-4-yl]-1H-pyrazol-4-yl}amino)quinazolin-7-yl]-4-methyl-1,3-oxazolidin-2-one] | 0.976 nM
6 | OC1CCN(c2cc3nc(Nc4cnn(C5CC5)c4)ncc3cc2Cl)CC1 [Ex-3.7, 1-{6-chloro-2-[(1-cyclopropyl-1H-pyrazol-4-yl)amino]quinazolin-7-yl} piperidin-4-ol] | 1.44 nM
7 | COCC12CC(n3cc(Nc4ncc5cc(Cl)c(N6CCC7(CC6)COC(CO)C7)cc5n4)cn3)(C1)C2 (stereo not drawn) [Ex-3.15, {8-[6-chloro-2-({1-[3-(methoxymethyl)bicyclo[1.1.1]pentan-1-yl]-1H-pyrazol-4-yl}amino)quinazolin-7-yl]-2-oxa-8-azaspiro [4.5]decan-3-yl}methanol] | 0.227 nM
8 | Cc1c(Nc2ncc3cc(Cl)c(N4CCN(C5COCC5O)CC4)cc3n2)cnn1CC(F)(F)F (single isomer, unassigned) [Ex-6.37, (3S,4S) or (3R,4R) 4-[4-(6-chloro-2-{[5-methyl-1-(2,2,2-trifluoroethyl)-1H-pyrazol-4-yl]amino}quinazolin-7-yl)piperazin-1-yl]oxolan-3-ol] | 6.35 nM
9 | CO[C@H]1C[C@H](n2ncc(Nc3ncc4cc(Cl)c(N5CCC(C)(O)CC5)cc4n3)c2C)C1 [Ex-6.13, 1-(6-chloro-2-{[1-(trans-3-methoxycyclobutyl)-5-methyl-1H-pyrazol-4-yl]amino}quinazolin-7-yl)-4-methylpiperidin-4-ol] | 0.976 nM
10 | CCn1ncc(Nc2ncc3ccc(N4CCCC4C)cc3n2)c1C (single isomer, unassigned) [Ex-1.8, (S) or (R) N-(1-ethyl-5-methyl-1H-pyrazol-4-yl)-7-(2-methylpyrrolidin-1-yl)quinazolin-2-amine] | 16 nM
11 | CC(C)(O)Cn1ncc(Nc2ncc3cc(Cl)c(N4CCN(C5(C)COC5)CC4)cc3n2)c1Cl [Ex-4.51, 1-[5-chloro-4-({6-chloro-7-[4-(3-methyloxetan-3-yl)piperazin-1-yl]quinazolin-2-yl}amino)-1H-pyrazol-1-yl]-2-methylpropan-2-ol] | 2.76 nM
12 | Cc1cc2cnc(Nc3cnn(C4CC4)c3Cl)nc2cc1N1CCN(C2COCC2O)CC1 (single isomer, unassigned) [Ex-5.8, (3S,4S) or (3R,4R) 4-(4-{2-[(5-chloro-1-cyclopropyl-1H-pyrazol-4-yl)amino]-6-methylquinazolin-7-yl}piperazin-1-yl)oxolan-3-ol] | 0.17 nM
